Laboratory results from ChEMBL document CHEMBL1201862, “PubChem BioAssay data set” (2004).
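A five-concentration, 48-hour dose response in 96-well plates underlies each endpoint, interpolated linearly between surrounding concentrations. GI50 = concentration required for 50% inhibition of growth.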 Activity calls are given as the source filed them. Rule as the data show it: active = GI50 up to about 1.1 µM and inactive = higher. Starred links: 1 amine or outer side, 2 acyl side, 3 side chain; linkers in the order of their positions; H or OH if unused. Positions of bridges follow the written chain, without caps; N, C: chain ends. Non-standard residues stand in square brackets, D forms with d. Residues, ends and D or L forms follow the SMILES beside them. ξ: configuration not given here. X11 = CCC(C)C(N[*:1])C(O)CC(=O)O[C@H](C(=O)C(C)C(=O)[*:2])C(C)C; X10 = O=C([C@@H]1CC(O)CN1[*:1])[*:2]; NMeY = CN[C@@H](Cc1ccc(O)cc1)C(=O)O; ξNMeL = CNC(CC(C)C)C(=O)O; ξT = CC(O)C(N)C(=O)O

What was measured:
Assay in all cases: NCI anticancer screen, dose series, 48 h
[1] = system: XF498
[2] = system: HOP-18
[3] = system: M19-MEL
[4] = system: DMS-114
[5] = system: DMS-273
[6] = system: MDA-MB-231
[7] = system: LXFL 529
[8] = system: DLD-1
[9] = system: RXF 631

SMILES	GI50 [2]	GI50 [3]	GI50 [4]	GI50 [5]	GI50 [6]	GI50 [7]	also measured
CCCSc1nc(COC(=O)NC)c(COC(=O)NC)n1C	> 100 µM (inactive)	> 95.1 µM (inactive)	38.7 µM (inactive)	> 95.5 µM (inactive)			GI50 [1]: > 100 µM (inactive)
CC12CCC(O)CC1CCC1C2CCC2(C)C(C(=O)CC(O)C(F)(F)F)CCC12 (stereo unspecified)					26.7 µM (inactive)		
CC(=O)c1nccc2c1c(C)nc1ccccc12					38.3 µM (inactive)		
Cc1cc(O)nc(NN2C(Cl)C(=O)C2c2cccc([N+](=O)[O-])c2)n1 (stereo unspecified)	18.5 µM (inactive)	19.5 µM (inactive)	21.8 µM (inactive)	15.6 µM (inactive)		16 µM (inactive)	
CSC1=Nc2ccccc2N(C)c2c1c(-c1ccccc1)nn2C					45.2 µM (inactive)		
CCOP(=O)(OCC)C(Cc1c[nH]c2ccccc12)C(=O)O (stereo unspecified)					> 100 µM (inactive)		
C/C=C/C(C#N)O[Si](C)(C)C (stereo unspecified)	> 100 µM (inactive)	> 100 µM (inactive)	> 100 µM (inactive)	> 100 µM (inactive)		> 100 µM (inactive)	GI50 [1]: > 100 µM (inactive); GI50 [8]: > 100 µM (inactive)
Cc1cc(S(=O)(=O)Nc2nncn2-c2ccc(Cl)cc2)c(S)cc1Cl					> 10 µM (inactive)		
COC(=O)C(=O)C(C(=O)OC)C(=O)C(=O)Nc1cc(Cl)c(Cl)cc1Cl (stereo unspecified)	> 100 µM (inactive)	> 100 µM (inactive)	14.6 µM (inactive)	44.7 µM (inactive)		> 100 µM (inactive)	GI50 [9]: > 100 µM (inactive); GI50 [1]: > 100 µM (inactive); GI50 [8]: 76.4 µM (inactive)
CC(NC(=O)c1ccc(OP(=O)(OCC2=CC(=O)c3ccccc3C2=O)N(C)CCCCCl)cc1)c1ccc(OCC2CCCCC2)c(C(N)=O)c1 (stereo unspecified)					8.99 µM (inactive)		
CC1(C)C2CCC3(OCCO3)C1C1OC12 (stereo unspecified)	45.6 µM (inactive)			> 100 µM (inactive)			GI50 [9]: > 100 µM (inactive); GI50 [1]: > 100 µM (inactive)
CCCCCCNC(=O)C1=C(C)NC(C)=C(C(=O)NCCCCCC)C1					> 100 µM (inactive)		
COc1ccc(CCC2NCCc3cc(OC)c(OC)cc32)cc1 (stereo unspecified)	> 100 µM (inactive)					> 100 µM (inactive)	GI50 [1]: > 100 µM (inactive); GI50 [8]: > 100 µM (inactive)
CN(CCN(C)CCN(C)C(=O)Cc1ccc(Cl)c(Cl)c1)CCN1CCCC1					17.7 µM (inactive)		
O=C1CSC(c2ccc(Cl)cc2Cl)N1c1ccc(Oc2ccc(Cl)cc2)c(Cl)c1 (stereo unspecified)					19.4 µM (inactive)		
COC1=C(C(c2cc(OC)c(OC)c(OC)c2)c2cc3c(cc2OC)OCO3)C(=O)OC1 (stereo unspecified)					28.6 µM (inactive)		
C[C@@]12CCC(=O)C=C1CC[C@H]1C2=CC[C@]2(C)C1CC[C@@]2(C)O (stereo partly specified)					67.5 µM (inactive)		
C=C(Nc1ccc(OC)cc1OC)C(=O)Cc1cccc[n+]1[O-]	> 100 µM (inactive)	> 100 µM (inactive)	> 100 µM (inactive)	> 100 µM (inactive)		> 100 µM (inactive)	GI50 [1]: > 100 µM (inactive); GI50 [8]: > 100 µM (inactive)
CCOC(=O)C1C(=O)CN2CCc3c([nH]c4ccccc34)C12C(=O)OCC (stereo unspecified)	72.8 µM (inactive)	> 100 µM (inactive)	> 100 µM (inactive)	> 100 µM (inactive)		> 100 µM (inactive)	GI50 [9]: > 100 µM (inactive); GI50 [1]: > 100 µM (inactive); GI50 [8]: > 100 µM (inactive)
Cc1ccc(NC(=O)/C(=N\Nc2ccc([N+](=O)[O-])cc2[N+](=O)[O-])C2C(=O)NC(=O)NC2=O)cc1	> 100 µM (inactive)	> 100 µM (inactive)	49.2 µM (inactive)			13.3 µM (inactive)	GI50 [9]: > 100 µM (inactive); GI50 [8]: 21.1 µM (inactive)

SMILES	GI50 [2]	GI50 [3]	GI50 [4]	GI50 [5]	GI50 [6]	GI50 [7]	also measured
CC(=O)OCCCCn1cnc2c(Cl)nc(Nc3ccccc3)nc21					> 100 µM (inactive)		
O=C1c2ccccc2C(=O)c2cc(/N=N/c3c(O)ccc4ccccc34)ccc21					> 100 µM (inactive)		
CCOC(=O)c1ccc(C(=O)C(C(C)=O)C(=O)OC(C)(C)C)[nH]1 (stereo unspecified)					> 100 µM (inactive)		
N#CN=C(N(Cc1ccccc1)Cc1ccccc1)N(Cc1ccccc1)Cc1ccccc1	> 100 µM (inactive)	25.5 µM (inactive)	4.85 µM (inactive)			3.89 µM (inactive)	GI50 [1]: 12.5 µM (inactive); GI50 [8]: 5.18 µM (inactive)
O=C1c2sc(-c3ccc(F)cc3)cc2-n2cccc21					22.2 µM (inactive)		
CN(COC(=O)C(C)(C)C)c1nc(N(C)COC(=O)C(C)(C)C)nc(N(C)COC(=O)C(C)(C)C)n1					16.4 µM (inactive)		
O=C1/C(=C/c2ccccc2)CN(C(=O)C(Cl)(Cl)Cl)C/C1=C\c1ccccc1	2.96 µM (inactive)	1.33 µM (inactive)	1.6 µM (inactive)	1.06 µM (active)		1.59 µM (inactive)	GI50 [8]: 1.96 µM (inactive)
O=[N+]([O-])/C=C/c1cn(CCCCCCCCn2cc(/C=C/[N+](=O)[O-])c3ccccc32)c2ccccc12					> 10 µM (inactive)		
CC(C)(C)c1ccc(-n2c3nc(=O)n(-c4ccccc4CO)c(=O)c-3cc3ccccc32)cc1					19.9 µM (inactive)		
Cc1ccc(-c2nnc3s/c(=C\c4ccc(N(C)C)cc4)c(=O)n23)cc1	> 100 µM (inactive)	> 100 µM (inactive)	> 100 µM (inactive)	> 100 µM (inactive)		> 100 µM (inactive)	GI50 [9]: > 100 µM (inactive); GI50 [1]: > 100 µM (inactive); GI50 [8]: > 100 µM (inactive)
Cc1c2c(n(CCN(C)C)c1C)NN=C(C#N)S2(=O)=O					> 100 µM (inactive)		
N#CCC(=O)N/N=C1\C(=O)N(c2ccc(Cl)cc2)C(=O)C(=O)C1c1nc2ccccc2o1 (stereo unspecified)	> 100 µM (inactive)	> 100 µM (inactive)	> 100 µM (inactive)	> 100 µM (inactive)		> 100 µM (inactive)	GI50 [9]: > 100 µM (inactive); GI50 [8]: > 100 µM (inactive)
CC#C[C@@]1(O)CCCC[C@@H]1O	> 100 µM (inactive)	> 100 µM (inactive)	> 100 µM (inactive)	> 100 µM (inactive)			GI50 [9]: > 100 µM (inactive); GI50 [1]: > 100 µM (inactive)
O=C(c1cccs1)N(C(=S)N1CCN(c2ccccc2)CC1)c1ccccc1	> 100 µM (inactive)	> 100 µM (inactive)	> 100 µM (inactive)	> 100 µM (inactive)		> 100 µM (inactive)	GI50 [8]: > 100 µM (inactive)
O=C1/C(=C/c2cccs2)N=C(c2ccccc2)N1C1Nc2cc3c(cc2S1)NC(N1C(=O)/C(=C/c2cccs2)N=C1c1ccccc1)S3 (stereo unspecified)					30.2 µM (inactive)		
CC1=C2c3c(C)ccc4ccc(C)c(c34)C2(O)C(C)C1=O (stereo unspecified)					89.1 µM (inactive)		
CCN(CC)c1ccc2cc(C(=O)Nc3nc(C45CC6CC(CC(C6)C4)C5)cs3)c(=O)oc2c1					> 100 µM (inactive)		
CC1=Nc2ccccc2C12C(c1ccccc1)C(c1ccccc1)C(=O)N1c3ccccc3CC12 (stereo unspecified)			> 100 µM (inactive)	> 100 µM (inactive)		> 100 µM (inactive)	GI50 [9]: > 100 µM (inactive); GI50 [1]: 11.9 µM (inactive); GI50 [8]: > 100 µM (inactive)
CC1(C)OCC[C@@H]1[Si](C)(C)C	23.1 µM (inactive)	> 100 µM (inactive)	49.2 µM (inactive)	78.3 µM (inactive)		> 100 µM (inactive)	GI50 [9]: > 100 µM (inactive); GI50 [1]: 32.8 µM (inactive)
O=c1[nH]c2cc(C(F)(F)F)ccc2nc1C(F)(F)F					31.3 µM (inactive)		

SMILES	GI50 [2]	GI50 [3]	GI50 [4]	GI50 [5]	GI50 [6]	GI50 [7]	also measured
CC(=O)c1cccc(NC(=O)C(=O)C(C(=O)c2ccccc2F)C2OC(=O)c3ccccc32)c1 (stereo unspecified)		23.1 µM (inactive)	31 µM (inactive)	34 µM (inactive)		44 µM (inactive)	GI50 [9]: 21.1 µM (inactive); GI50 [1]: 35.6 µM (inactive); GI50 [8]: 45.8 µM (inactive)
C/C(=C/c1c(C)[nH]c(=O)[nH]c1=O)C(=O)O	> 1370 µM (inactive)	> 1370 µM (inactive)	> 1370 µM (inactive)	> 1370 µM (inactive)			GI50 [1]: > 1370 µM (inactive); GI50 [8]: > 1370 µM (inactive)
COc1ccc(-c2c3c([nH]c(=S)c2C#N)CC(C)(C)CC3=O)cc1					> 100 µM (inactive)		
Cc1cccc(C)c1NC(=O)C(=O)C1C(=O)N(c2ccccc2)N=C1N (stereo unspecified)	> 100 µM (inactive)	> 100 µM (inactive)	> 100 µM (inactive)	> 100 µM (inactive)		> 100 µM (inactive)	GI50 [8]: > 100 µM (inactive)
O=C1C=C(Br)c2c(-c3ccccc3)oc3cccc1c23	> 100 µM (inactive)	> 60.1 µM (inactive)	24.8 µM (inactive)	> 42.9 µM (inactive)	26.4 µM (inactive)	> 65.2 µM (inactive)	GI50 [9]: 46.8 µM (inactive); GI50 [8]: > 100 µM (inactive)
O=c1cc(NNc2ccccc2)[nH]c(=O)[nH]1					15.8 µM (inactive)		
COc1cc2c(cc1O)CC[C@@H]1C2CC[C@@]2(C)C1CC[C@@H]2O (stereo partly specified)					3.4 µM (inactive)		
CC(C)(/N=N/C(C)(C)C(=O)NCCO)C(=O)NCCO					> 100 µM (inactive)		
CN(C)C(=S)SCC(N)=O					> 100 µM (inactive)		
COc1ccc(NC(=O)C(=O)NO)c(OC)c1	17.3 µM (inactive)	21.9 µM (inactive)	15.5 µM (inactive)	16.6 µM (inactive)		16.7 µM (inactive)	GI50 [9]: 18.6 µM (inactive); GI50 [8]: 21.5 µM (inactive)
COC1CC(=O)C2C(=O)N(c3ccccc3)C(=O)C23C(C(=O)c2ccccc2)=C(C)NC13O (stereo unspecified)					17.1 µM (inactive)		
COC(=O)C1CCC(=O)N1C(c1ccc2c(c1)OCO2)c1cc(OC)c(OC)c(OC)c1 (stereo unspecified)					> 100 µM (inactive)		
CCOC(=O)c1nc2ccccc2n(CC)c1=O					> 100 µM (inactive)		
O=C1OC(c2ccc(O)cc2)(c2ccc(O)cc2)c2ccc(Cl)c3cccc1c23.O=C1OC(c2ccc(O)cc2)(c2ccc(O)cc2)c2cccc3c(Cl)ccc1c23					10.7 µM (inactive)		
Cc1ncc([N+](=O)[O-])n1CC[N+](C)([O-])CCCCn1ccnc1[N+](=O)[O-] (stereo unspecified)					> 100 µM (inactive)		
COc1ccc(-c2cc(=O)c3c(OC)c(O)c(OC)cc3o2)cc1					23.6 µM (inactive)		
Cc1ccc2c(O)cc(-c3ccccc3)nc2n1					0.467 µM (active)		
CCC(C)C1NC(=O)C(NC(=O)C(CC(C)C)N(C)C(=O)[C@@H]2CC(O)CN2)C(C)OC(=O)[C@H](Cc2ccc(OC)cc2)N(C)C(=O)[C@@H]2CCCN2C(=O)[C@H](CC(C)C)NC(=O)C(C)C(=O)[C@H](C(C)C)OC(=O)CC1O (stereo partly specified) (H-[X10][ξNMeL][ξT][X11]LP[NMeY](Me); ester 3-C)					0.0224 µM (active)		
